{
  "source": "paper PMC8364340",
  "about": "(Drug Design, Development and Therapy, 2021)",
  "tested_on": "STZ-induced diabetic rats",
  "experiment": "Blood glucose-lowering efficacy in STZ-induced diabetic rats",
  "assay_type": "in vivo",
  "conditions": "subcutaneous, 100 nmol/kg, mean ± SD, n=6",
  "data": [
    {"substance": "Humulin R: Recombinant Human Insulin Injection (Humulin R, 3mL:300IU), Lilly France", "values": [
      {"measurement": "AUC for Glucose AUC0-24h", "setting": "glucometer, trapezoidal rule", "value": "10,990 ± 415.5 mg·h/dL"},
      {"measurement": "AUC for Glucose AUC0-1h", "value": "421 ± 20.4", "unit": "mg·h/dL"},
      {"measurement": "AUC for Glucose AUC0-2h", "value": "724 ± 52.2", "unit": "mg·h/dL"},
      {"measurement": "AUC for Glucose AUC0-4h", "value": "1328 ± 100.1", "unit": "mg·h/dL"},
      {"measurement": "AUC for Glucose AUC0-6h", "value": "2156 ± 132.0", "unit": "mg·h/dL"},
      {"measurement": "AUC for Glucose AUC0-8h", "value": "3092 ± 174.8", "unit": "mg·h/dL"},
      {"measurement": "AUC for Glucose AUC0-12h", "value": "5070 ± 259.4", "unit": "mg·h/dL"},
      {"measurement": "AUC for Glucose AUC0-16h", "value": "7146 ± 321.1", "unit": "mg·h/dL"}
    ]}
  ]
}
